# Key:
# acetyl-histone H3 = assay: PK/PD study, acetyl-histone H3 in tumor by Western blot; type: in vivo, C57BL/6 mice
# Experimental: (§1) In a separate PK/PD study, MC38 tumor-bearing female C57BL/6 mice (12/group) were assigned to treatment groups with similar mean tumor volumes of approximately 430 mm^3 and treated with vehicle (5% N,N-dimethylacetamide [DMA]+30% polyethylene glycol [PEG] 400+65% of 30% 2-hydroxypropyl-beta-cyclodextrin [HP-β-CD] in water) or Compound I at 30, 100, and 300 mg/kg once daily (QD) for 2 days. Plasma samples were collected at 1, 2, 8 and 24 hours after last dose and analyzed for Compound I concentrations. Peripheral blood mononuclear cells (PBMC) and tumor samples were harvested at 2, 8, and 24 hours after last dose. The PBMC samples were processed for determination of mean florescent level of acetyl-histone H2B by flow cytometry. Tumor samples were processed for determination of protein levels of acetyl-histone H3 by Western blot.
# [1] = system: CT26 parental tumor (KRAS G12D); assay: Anti-tumor efficacy in CT26 parental (wild-type) colon carcinoma model; type: in vivo, mouse
# Experimental: (§2) An in vivo anti-tumor efficacy of combination treatment of Anti-PD1 and Compound I in a CT26 mouse model was evaluated. CT26 is a colon carcinoma cell line with an endogenous KRAS G12D mutation. The experiment was performed in the parental/wild type line and in a line engineered with an STK11 knock-out (CT26_STK11KO) resulting in an anti-PD1 resistant model with lower CD8+ T cell infiltration.
# In each of the experiments, the animals (8/group) were divided into four groups. Group I was treated with a control antibody Anti-IgG2, group 2 was treated with Compound I 75 mg/kg, group 3 was treated with anti-PD1 antibody, and group 4 was treated with Compound I 75 mg/kg and anti-PD1 antibody. Tumor volume and survival was monitored over the course of treatment. For the CT26_STK11KO model, the tumor volume was plotted by individual animal (FIG. 15A) and by treatment group (FIG. 15B). Survival was plotted by treatment group (FIG. 15C).
# For the CT26 parental model, the tumor volume was plotted by treatment group (FIG. 15D) and by individual animal for groups 1 and 4 (FIG. 15E).
# as §2, with “anti-CTLA4” for “Anti-PD1”, “anti-CTLA4-resistant model.” for “anti-PD1 resistant model with lower CD8+ T cell infiltration.”
# An in vivo anti-tumor efficacy of double combination treatment of Anti-CTLA4 and Compound I in a CT26 syngeneic model was performed. CT26 is a colon carcinoma cell line. The experiment was also performed with an STK11-null CT26 model, this model is CTLA4 resistant.
# There were 8 mice per group. Group I was treated with a control antibody Anti-IgG2, group 2 was treated with Compound I 75 mg/kg, group 3 was treated with anti-CTLA4 antibody, and group 4 was treated with Compound I 75 mg/kg and anti-CTLA4 antibody. Tumor volume was monitored over the course of treatment. The tumor volume was plotted by treatment group (FIG. 16A), and the individual animals were plotted for group 1 and group 4 (FIG. 16B), for the parental model. The tumor volume was plotted by treatment group (FIG. 16C), and the individual animals were plotted for group 1 and group 4 (FIG. 16D), for the STK11 knockout model.
# MC38_sgStk11 tumor = assay: Re-challenge of survived animals of Example 1 with MC38_sgStk11 cells; type: in vivo, Mus musculus; conditions: off-treatment
# Experimental: Summary: A re-challenge study of Example 1 was performed to evaluate whether the survived animals from Example 1 had acquired T memory against the same tumor.
# Experimental Design & Materials: The survived animals of the efficacy part were re-challenged with MC38_sgStk11 cells respectively in the opposite side of primary tumors.
# The MC38_sgStk11 tumor cells were maintained in vitro as a monolayer culture in DMEM+2 mM glutamine supplemented with about 10% heat inactivated fetal bovine serum, 100 U/ml penicillin and 100 μg/ml streptomycin at about 37° C. in an atmosphere of about 5% CO2 in air. The tumor cells were routinely sub-cultured twice weekly by trypsin-EDTA treatment. The cells growing in an exponential growth phase were harvested and counted for tumor inoculation.
# Mice were inoculated subcutaneously at the left lower flank with MC38_sgStk11 tumor cells (0.5×106) in 0.1 ml of PBS for tumor development. The animal numbers and the cell numbers for each group are shown in the experimental design (Table 2-1). The survived animals from the Example 1 were under post-treatment monitoring for 21 days before re-challenge.
# All the procedures related to animal handling, care and the treatment in the study were performed according to the guidelines approved by the Institutional Animal Care and Use Committee (IACUC) of vendor following the guidance of the Association for Assessment and Accreditation of Laboratory Animal Care (AAALAC). At the time of routine monitoring, the animals were daily checked for any effects of tumor growth and treatments on normal behavior such as mobility, food and water consumption, body weight gain/loss (body weights were measured twice per week), eye/hair matting and any other abnormal effect as stated in the protocol. Death and observed clinical signs were recorded on the basis of the numbers of animals within each subset.
# Tumor size was measured three times per week in […] using a caliper, and the volume was expressed in mm3 using the formula: V=0.5 a×b2 where a and b are the long and short diameters of the tumor, respectively.
# [2] = PK/PD study, body weight and clinical signs; type: in vivo, C57BL/6 mice; conditions: 30, 100, 300 mg/kg QD for 2 days
# Experimental: as §1
# logD7.4 = type: physicochemical; conditions: pH 7.4
# HDAC10 = target: T1, HDAC10 (Homo sapiens, UniProt Q969S8); assay: Cellular NanoBRET assay, HDAC10; type: cell-based
# T1 construct: expressed in transfected cells
# T1 sequence (Q969S8 whole entry): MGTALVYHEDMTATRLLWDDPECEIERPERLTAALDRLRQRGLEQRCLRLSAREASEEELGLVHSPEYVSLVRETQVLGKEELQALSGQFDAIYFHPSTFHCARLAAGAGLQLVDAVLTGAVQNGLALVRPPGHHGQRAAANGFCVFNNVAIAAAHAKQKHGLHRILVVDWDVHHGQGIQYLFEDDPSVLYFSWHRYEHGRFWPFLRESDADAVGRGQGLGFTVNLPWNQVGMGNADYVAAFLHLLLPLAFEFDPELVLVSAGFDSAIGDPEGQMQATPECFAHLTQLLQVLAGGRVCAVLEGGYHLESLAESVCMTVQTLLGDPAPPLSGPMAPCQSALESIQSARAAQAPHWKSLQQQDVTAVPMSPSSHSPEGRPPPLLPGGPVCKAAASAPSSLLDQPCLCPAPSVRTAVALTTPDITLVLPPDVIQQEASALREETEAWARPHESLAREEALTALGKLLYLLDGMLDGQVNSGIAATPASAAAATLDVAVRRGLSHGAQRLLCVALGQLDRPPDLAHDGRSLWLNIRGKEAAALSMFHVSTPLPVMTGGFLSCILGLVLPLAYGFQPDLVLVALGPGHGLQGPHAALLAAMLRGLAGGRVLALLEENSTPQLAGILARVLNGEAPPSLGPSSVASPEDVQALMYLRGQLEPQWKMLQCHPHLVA
# [3] = Caverage in mice with STK11-deleted MC38 tumors; type: in vivo, mouse; conditions: doses used in FIG. 12B and 12C
# [4] = Compound I 75 mg/kg QD alone, second of two values (two experiments, Examples 14 and 15)
# [5] = Compound I 75 mg/kg QD, antibodies 10 mg/kg, for Compound I alone the first of two printed values
structure (smiles),measurement,setting,value
"C[S@@](=N)(=O)c1ccc(C(=O)Nc2cc(-c3ccc(F)cc3)ccc2N)cc1 [Compound I, (R)—N-(4-amino-4′-fluoro-[1,1′-biphenyl]-3-yl)-4-(S-methylsulfonimidoyl)benzamide]",maximal induction of histone acetylation in tumor,"acetyl-histone H3; 300 mg/kg QD, 2 days, 24 hours after last dose, vs vehicle control",3.7 fold
same,tumor acetyl-histone protein levels,"acetyl-histone H3; 30, 100, 300 mg/kg QD, starting 2 hours after last dose",dose-dependent increase
same,ORR %,[1]; [4],63/63%
same,TGI %,[1]; [4],66%
same,ORR %,[1]; [5],63/63%
same,TGI %,[1]; [5],84%
same,Tumor Volume after re-challenge,"MC38_sgStk11 tumor; Re-challenge Gr 2: survivor of Ex. 1 Gr. 5 (Anti-IgG2a + Compound I 75 mg/kg), day 0 after cell inoculation",0 mm^3
same,Tumor Volume after re-challenge,"MC38_sgStk11 tumor; Re-challenge Gr 2: survivor of Ex. 1 Gr. 5 (Anti-IgG2a + Compound I 75 mg/kg), day 3 after cell inoculation",17 mm^3
same,Tumor Volume after re-challenge,"MC38_sgStk11 tumor; Re-challenge Gr 2: survivor of Ex. 1 Gr. 5 (Anti-IgG2a + Compound I 75 mg/kg), day 5 after cell inoculation",25 mm^3
same,Tumor Volume after re-challenge,"MC38_sgStk11 tumor; Re-challenge Gr 2: survivor of Ex. 1 Gr. 5 (Anti-IgG2a + Compound I 75 mg/kg), day 8 after cell inoculation",6 mm^3
same,Tumor Volume after re-challenge,"MC38_sgStk11 tumor; Re-challenge Gr 2: survivor of Ex. 1 Gr. 5 (Anti-IgG2a + Compound I 75 mg/kg), day 10 after cell inoculation",0 mm^3
same,Tumor Volume after re-challenge,"MC38_sgStk11 tumor; Re-challenge Gr 2: survivor of Ex. 1 Gr. 5 (Anti-IgG2a + Compound I 75 mg/kg), day 12 after cell inoculation",0 mm^3
same,Tumor Volume after re-challenge,"MC38_sgStk11 tumor; Re-challenge Gr 2: survivor of Ex. 1 Gr. 5 (Anti-IgG2a + Compound I 75 mg/kg), day 15 after cell inoculation",0 mm^3
same,Tumor Volume after re-challenge,"MC38_sgStk11 tumor; Re-challenge Gr 2: survivor of Ex. 1 Gr. 5 (Anti-IgG2a + Compound I 75 mg/kg), day 17 after cell inoculation",0 mm^3
same,Tumor Volume after re-challenge,"MC38_sgStk11 tumor; Re-challenge Gr 2: survivor of Ex. 1 Gr. 5 (Anti-IgG2a + Compound I 75 mg/kg), day 19 after cell inoculation",0 mm^3
same,Tumor Volume after re-challenge,"MC38_sgStk11 tumor; Re-challenge Gr 7: survivors of Ex. 1 Gr. 12 (head prints Anti-IgG2a + Compound I 150 mg/kg D0-D4, 100 mg/kg D5-D48), day 0 after cell inoculation",0 ± 0 mm^3
same,Tumor Volume after re-challenge,"MC38_sgStk11 tumor; Re-challenge Gr 7: survivors of Ex. 1 Gr. 12 (head prints Anti-IgG2a + Compound I 150 mg/kg D0-D4, 100 mg/kg D5-D48), day 3 after cell inoculation",27 ± 2 mm^3
same,Tumor Volume after re-challenge,"MC38_sgStk11 tumor; Re-challenge Gr 7: survivors of Ex. 1 Gr. 12 (head prints Anti-IgG2a + Compound I 150 mg/kg D0-D4, 100 mg/kg D5-D48), day 5 after cell inoculation",27 ± 1 mm^3
same,Tumor Volume after re-challenge,"MC38_sgStk11 tumor; Re-challenge Gr 7: survivors of Ex. 1 Gr. 12 (head prints Anti-IgG2a + Compound I 150 mg/kg D0-D4, 100 mg/kg D5-D48), day 8 after cell inoculation",6 ± 0 mm^3
same,Tumor Volume after re-challenge,"MC38_sgStk11 tumor; Re-challenge Gr 7: survivors of Ex. 1 Gr. 12 (head prints Anti-IgG2a + Compound I 150 mg/kg D0-D4, 100 mg/kg D5-D48), day 10 after cell inoculation",0 ± 0 mm^3
same,Tumor Volume after re-challenge,"MC38_sgStk11 tumor; Re-challenge Gr 7: survivors of Ex. 1 Gr. 12 (head prints Anti-IgG2a + Compound I 150 mg/kg D0-D4, 100 mg/kg D5-D48), day 12 after cell inoculation",0 ± 0 mm^3
same,Tumor Volume after re-challenge,"MC38_sgStk11 tumor; Re-challenge Gr 7: survivors of Ex. 1 Gr. 12 (head prints Anti-IgG2a + Compound I 150 mg/kg D0-D4, 100 mg/kg D5-D48), day 15 after cell inoculation",0 ± 0 mm^3
same,Tumor Volume after re-challenge,"MC38_sgStk11 tumor; Re-challenge Gr 7: survivors of Ex. 1 Gr. 12 (head prints Anti-IgG2a + Compound I 150 mg/kg D0-D4, 100 mg/kg D5-D48), day 17 after cell inoculation",0 ± 0 mm^3
same,Tumor Volume after re-challenge,"MC38_sgStk11 tumor; Re-challenge Gr 7: survivors of Ex. 1 Gr. 12 (head prints Anti-IgG2a + Compound I 150 mg/kg D0-D4, 100 mg/kg D5-D48), day 19 after cell inoculation",0 ± 0 mm^3
same,body weight loss and clinical signs,[2],No obvious body weight loss of more than 5% or adverse clinical signs
same,logD7.4,logD7.4,1.9
same,IC50,HDAC10,> 30 µM
same,"Cavg, u",[3],192 nM
same,Fold of HDAC1 IC50 (Caverage coverage),[3],3.5 fold

# Reference: patent publication US20260041653A1, “AN HDAC INHIBITOR FOR TREATING CANCER WITH A MODIFIED STK11 ACTIVITY OR EXPRESSION” (Tango Therapeutics, Inc., priority 2022, published 2026)
